Test results taken from ChEMBL document CHEMBL5360538, “Recent updates on 1,2,3-triazole-containing hybrids with in vivo therapeutic potential against cancers: A mini-review” (Eur J Med Chem, 2023).

Legend:
NCI-H460 = assay: Antiproliferative activity against human NCI-H460 cells assessed as inhibition of cell growth incubated for 48 hrs by MTT assay; format: functional, cell-based; conditions: NCI-H460, 48 h
A549 [1] = assay: Antiproliferative activity against human A549 cells assessed as inhibition of cell growth incubated for 48 hrs by MTT assay; format: functional, cell-based; conditions: A549, 48 h
A549 [2] = assay: Antitumor activity against human A549 cells xenografted in nude mouse model assessed as inhibition of tumor growth at 1.0 mg/kg, sc administered every three or four days for 4 weeks relative to control; format: functional; conditions: A549, 672 h
Ehrlich [3] = assay: Antitumor activity against mouse EAC cells implanted in Swiss albino mouse model assessed as tumor growth inhibition at 10 mg/kg, ip administered each day for 9 days and measured after 14 days relative to control; format: functional; conditions: 336 h, time 14 day
Ehrlich [4] = assay: Antitumor activity against mouse EAC cells implanted in Swiss albino mouse model assessed as increase in life span at 10 mg/kg, ip administered each day for 9 days and measured after 14 days relative to control; format: functional; conditions: time 14 day
LA7 [5] = assay: Antiproliferative activity against rat LA7 cells assessed as inhibition of cell growth incubated for 48 hrs by MTT assay; format: functional, cell-based; conditions: LA7, 48 h
LA7 [6] = assay: Antitumor activity against rat LA7 cells xenografted in mouse assessed as inhibition of tumor growth at 5 mg/kg, po administered daily for 21 days relative to control; format: functional; conditions: LA7, 504 h, time 21 day
MCF7 [7] = assay: Antiproliferative activity against human MCF7 cells assessed as inhibition of cell growth incubated for 48 hrs by MTT assay; format: functional, cell-based; conditions: MCF7, 48 h
MGC-803 = assay: Antitumor activity against human MGC-803 cells xenografted in SCID mouse model assessed as inhibition of tumor growth at 50 mg/kg, po relative to control; format: functional
U2OS = assay: Antiproliferative activity against human U2OS cells assessed as inhibition of cell growth incubated for 72 hrs by MTT assay; format: functional, cell-based
A549/TR = assay: Antiproliferative activity against taxol-resistant human A549/Taxol cells assessed as inhibition of cell growth incubated for 72 hrs by MTT assay; format: functional, cell-based
HCT-116 = assay: Antiproliferative activity against human HCT-116 cells assessed as inhibition of cell growth incubated for 72 hrs by MTT assay; format: functional, cell-based; conditions: HCT-116, 72 h
A549 [8] = assay: Antitumor activity against human A549 cells xenografted in Kunming mouse model assessed as inhibition of tumor growth at 20 mg/kg, iv administered twice daily for 2 weeks relative to control; format: functional; conditions: A549, 336 h
[9] = Antiproliferative activity against cisplatin-resistant human A549/DDP cells assessed as inhibition of cell growth incubated for 72 hrs by MTT assay; format: functional, cell-based
A549 [10] = assay: Antiproliferative activity against human A549 cells assessed as inhibition of cell growth incubated for 72 hrs by MTT assay; format: functional, cell-based; conditions: A549, 72 h
MDA-MB-231 [11] = assay: Antiproliferative activity against human MDA-MB-231 cells assessed as inhibition of cell growth incubated for 48 hrs by MTT assay; format: functional, cell-based; conditions: MDA-MB-231, 48 h
Ehrlich [12] = assay: Antitumor activity against mouse EAC cells implanted in Swiss albino mouse assessed as tumor growth inhibition at 5.0 mg/kg, ip administered alternate days for 10 days relative to control; format: functional; conditions: 240 h, time 10 day, read-out: TGI
KYSE-150 cell line [13] = assay: Potency index, ratio of 5-fluorouracil IC50 to test compound IC50 for antiproliferative activity against human KYSE-150 cells assessed as inhibition of cell growth incubated for 72 hrs by MTT assay; format: functional
KYSE-270 = assay: Potency index, ratio of 5-fluorouracil IC50 to test compound IC50 for antiproliferative activity against human KYSE-270 cells assessed as inhibition of cell growth incubated for 72 hrs by MTT assay; format: functional
KYSE-510 = assay: Potency index, ratio of 5-fluorouracil IC50 to test compound IC50 for antiproliferative activity against human KYSE-510 cells assessed as inhibition of cell growth incubated for 72 hrs by MTT assay; format: functional
KYSE-150 cell line [14] = assay: Antiproliferative activity against human KYSE-150 cells assessed as inhibition of cell growth incubated for 72 hrs by MTT assay; format: functional, cell-based; conditions: KYSE-150, 72 h, pooled result: one value given for 5 cell lines, strains, targets or settings
ECa-109 cell line [15] = assay: Potency index, ratio of 5-fluorouracil IC50 to test compound IC50 for antiproliferative activity against human EC109 cells assessed as inhibition of cell growth incubated for 72 hrs by MTT assay; format: functional
ECa-109 cell line [16] = assay: Antitumor activity against human EC109 cells xenografted in BALB/c nude mouse model assessed as inhibition of tumor growth at 60 mg/kg, po relative to control; format: functional
TE-1 = assay: Potency index, ratio of 5-fluorouracil IC50 to test compound IC50 for antiproliferative activity against human TE-1 cells assessed as inhibition of cell growth incubated for 72 hrs by MTT assay; format: functional
BT-474 = assay: Antiproliferative activity against drug-sensitive human BT-474 cells assessed as inhibition of cell growth by MTT assay; format: functional, cell-based
MCF7 [17] = assay: Antiproliferative activity against drug-sensitive human MCF7 cells assessed as inhibition of cell growth by MTT assay; format: functional, cell-based
MDA-MB-231 [18] = assay: Antiproliferative activity against drug-sensitive human MDA-MB-231 cells assessed as inhibition of cell growth by MTT assay; format: functional, cell-based
SK-BR-3 = assay: Antiproliferative activity against drug-sensitive human SK-BR-3 cells assessed as inhibition of cell growth by MTT assay; format: functional, cell-based
MCF7 [19] = assay: Antitumor activity against human MCF7 cells xenografted in mouse assessed as tumor growth inhibition by measuring T/C ratio at 25 mg/kg, iv; format: functional
[20] = Antiproliferative activity against human Tamoxifen-resistant MCF7 cells assessed as inhibition of cell growth by MTT assay; format: functional, cell-based
[21] = Plasma clearance in Albino mouse at 1.0 mg/kg, iv; format: ADME, organism-based
[22] = Antiproliferative activity against human Trastuzumab-resistant BT-474 cells assessed as inhibition of cell growth by MTT assay; format: functional, cell-based, Trastuzumab-resistant BT-474 cell
[23] = AUC(0 to t) in Albino mouse at 1.0 mg/kg, iv; format: ADME, organism-based; parameters: dose 1 mg/kg, route iv; conditions: in vivo
[24] = Elimination half life in Albino mouse plasma at 1.0 mg/kg, iv; format: ADME, organism-based; conditions: read-out: beta t1/2 (converted)
OC-314 = assay: Antiproliferative activity against human OC-314 cells assessed as reduction in cell viability by MTT assay; format: functional, cell-based
OVCAR-8 [25] = assay: Antitumor activity against human OVCAR-8 cells xenografted in nude mouse assessed as inhibition of tumor growth at 100 mg/kg, IG administered daily for 21 days relative to control; format: functional; conditions: OVCAR-8, po, 504 h, time 21 day
OVCAR-8 [26] = assay: Antiproliferative activity against human OVCAR-8 cells assessed as reduction in cell viability by MTT assay; format: functional, cell-based
Caov-3 cell line = assay: Antiproliferative activity against human Caov-3 cells assessed as reduction in cell viability by MTT assay; format: functional, cell-based
SK-OV-3 = assay: Antiproliferative activity against human SK-OV-3 cells assessed as reduction in cell viability by MTT assay; format: functional, cell-based
KYSE-450 = assay: Antitumor activity against human KYSE-450 cells xenografted in nu/nu nude mouse model assessed as inhibition of tumor growth at 25 mg/kg, ip administered every day for 15 days relative to control; format: functional; conditions: KYSE-450, 360 h, time 15 day
NCI-H1650 = assay: Antiproliferative activity against drug-sensitive human NCI-H1650 cells assessed as inhibition of cell growth incubated for 48 hrs by MTT assay; format: functional, cell-based; conditions: NCI-H1650, 48 h, pooled result: one value given for 9 cell lines, strains, targets or settings
A549 [27] = assay: Antiproliferative activity against human A549 cells assessed as inhibition of cell growth incubated for 24 hrs by MTT assay; format: functional, cell-based; conditions: A549, 24 h
[28] = Antitumor activity against mouse Lewis lung carcinoma cells implanted in C57BL/6J mouse model assessed as inhibition of tumor growth at 5.0 mg/kg, ip administered alternate days for 20 days in presence of 5.0 mg/kg gefitinib relative to control; format: functional; conditions: 480 h, time 20 day
animal or person = format: functional; conditions: Mus musculus, Lewis lung carcinoma, 480 h, route ip, time 20 day

## COc1ccc2c(c1)OCC(=O)N2Cc1cn(Cc2ccccc2)nn1
NCI-H460
  IC50: < 8 µM
A549 [1]
  IC50: < 8 µM
A549 [2]
  inhibition in vivo at 1 mg/kg: 60%

## COc1ccc(-c2ccc3c(c2)OCC(=O)N3Cc2cn(-c3cc(Cl)cc(Cl)c3)nn2)cc1
Ehrlich [3]
  inhibition in vivo at 10 mg/kg: 54%
Ehrlich [4]
  Activity: 68.94%

## O=C1/C(=C/c2ccccc2F)CN(Cc2cn(Cc3ccc(F)cc3)nn2)C/C1=C\c1ccccc1F
LA7 [5]
  IC50: 3.1 µM
LA7 [6]
  inhibition in vivo at 5 mg/kg: 80%
MCF7 [7]
  IC50: 2.1 µM

## COc1ccc(-n2cc(CN3c4ccccc4Sc4ccccc43)nn2)c([N+](=O)[O-])c1
MGC-803
  inhibition in vivo at 50 mg/kg: 70.1%

## CC(C)=CC[C@]12OC(C)(C)C3C[C@H](C=C4C(=O)c5c(OCc6cn(CCN7CCOCC7)nn6)cccc5OC431)C2=O
U2OS
  IC50: 0.28 µM
A549/TR
  IC50: 0.28 µM
HCT-116
  IC50: 0.28 µM
A549 [8]
  inhibition in vivo at 20 mg/kg: 71.3%
[9]
  IC50: 0.28 µM
A549 [10]
  IC50: 0.28 µM

## NS(=O)(=O)NCCNC(=O)c1n[nH]nc1-c1ccc(F)c(F)c1
MDA-MB-231 [11]
  IC50: 0.077 µM
Ehrlich [12]
  inhibition in vivo at 5 mg/kg: > 80%

## COc1cnc(Cn2cc(CNC(=O)c3c(F)c(F)c(F)c(F)c3F)nn2)c(OC)c1
KYSE-150 cell line [13]
  Ratio IC50: 3.1
KYSE-270
  Ratio IC50: 3.1
KYSE-510
  Ratio IC50: 3.1
KYSE-150 cell line [14]
  IC50: 0.83 µM
ECa-109 cell line [15]
  Ratio IC50: 3.1
ECa-109 cell line [16]
  inhibition in vivo at 60 mg/kg: 60%
TE-1
  Ratio IC50: 3.1

## O=C1CCCC2=C1C(c1cn(-c3ccc(Cl)cc3)nn1)C1=C(CCCC1=O)N2
BT-474
  IC50: 0.153 µM
MCF7 [17]
  IC50: 0.153 µM
MDA-MB-231 [18]
  IC50: 0.153 µM
SK-BR-3
  IC50: 0.153 µM
MCF7 [19]
  T/C: 0.2
[20]
  IC50: 0.153 µM
[21]
  clearance: 15.4 mL/min/kg
[22]
  IC50: 0.153 µM
[23]
  AUC(0-t): 232 ng·h/mL
[24]
  half-life: 8.1 h

## O=S(=O)(NCc1cn(Cc2cccc(Oc3ccccc3)c2)nn1)c1ccc(F)cc1
OC-314
  IC50: 0.54 µM
OVCAR-8 [25]
  inhibition in vivo at 100 mg/kg: 61.8%
OVCAR-8 [26]
  IC50: 0.54 µM
Caov-3 cell line
  IC50: 0.54 µM
SK-OV-3
  IC50: 0.54 µM

## FC(F)(F)c1ccc(-n2cc(-c3cccc(Nc4ncnc5cc6c(cc45)OCCOCCOCCO6)c3)nn2)cc1
KYSE-450
  inhibition in vivo at 25 mg/kg: 25%
NCI-H1650
  IC50: 3.26 µM

## COc1ccc(-c2cn(CC3(C)C=Cc4cc(N)ccc4O3)nn2)cc1 (centres undefined)
A549 [27]
  IC50: 0.002 µM
[28]
  inhibition in vivo at 5 mg/kg: 80%
Animal or person
  inhibition in vivo at 5 mg/kg: 50%
